Read-outs that look alike come from different tables or passages of the source.
Columns and labels:
[1] = test system: A375 human melanoma xenografts; test: Example 8 efficacy study in A375 human melanoma xenografts (tumor volume, T/C, TGI); assay type: in vivo, BALB/c nude mice; settings: 35 mg/kg, p.o., QD × 21 days
Method: For efficacy study, agents were tested in the A375 human melanoma xenografts model. Compound 8, Compound 26, and Compound 38 were administered to BALB/c nude mice bearing A375 xenografts from day 0 and dosed p.o. twice per day (BID). Compound 8 and Compound 26 were dosed at 10 mg/kg for 21 days. Compound 38 was dosed at 10 mg/kg for 10 days. The known BRAF inhibitor encorafenib was used as a positive control. encorafenib was administered from day 1 and dosed p.o. daily (QD) for 21 days and dosed at 35 mg/kg.
The A375 tumor cells were maintained in vitro in DMEM medium supplemented with […] and 1% Penicillin-Streptomycin at 37° C. in an atmosphere of 5% CO2 in air. The tumor cells were routinely subcultured twice weekly. The cells growing in an exponential growth phase were harvested and counted for tumor inoculation.
Each mouse was inoculated subcutaneously at the right flank with A375 cells (5×10^6) in 0.2 mL of PBS supplemented with Matrigel (PBS:Matrigel=1:1) for tumor development. Animals were grouped for treatment 16 days after tumor inoculation when the average tumor volume reached 234 mm^3 for efficacy study and 382 mm^3 for PKPD study. The test articles administration and the animal numbers in each group are shown in the above experimental tables.
Prior to the onset of drug treatment, mice were measured for tumor size in two dimensions using a caliper, and the tumor volume (mm^3) was calculated using formula V=0.5 a×b^2 where a and b are the long and short diameters of the tumor in mm, respectively. Mice were randomized into different treatment groups based on the tumor volume.
The major endpoint was to see if the tumor growth could be delayed or mice could be cured. The tumor size was then used for calculations of T/C value. The T/C value (in percent) is an indication of antitumor effectiveness; T and C are the mean volumes of the treated and control groups, respectively on specified day.
TGI was calculated for each group using the formula: TGI (%)=[1−(Ti−T0)/(Ci−C0)]×100; Ti is the average tumor volume of a treatment group on a given day, T0 is the average tumor volume of the treatment group on the day of treatment start, Ci is the average tumor volume of the vehicle control group on the same day with Ti, and C0 is the average tumor volume of the vehicle group on the day of treatment start.

[2] = Example 8 pharmacokinetics assay for PKPD study (plasma, tumor, liver); assay type: in vivo, BALB/c nude mice; settings: mouse, po, 35 mg/kg, p.o., single dose
Method: For the PK and PD study, agents were administered to BALB/c nude mice bearing A375 human melanoma xenografts tumors. encorafenib, Compound 8, Compound 26, Compound 38, and Compound 39 were dosed p.o. once on day 1. Encorafenib was dosed at 35 mg/kg, Compound 8, Compound 26, Compound 38, and Compound 39 were dosed at 10 mg/kg. This study was non-GLP.
The plasma samples were collected at predetermined time points for PK analysis. For non-termination plasma collection, blood samples were collected into the 1.5 mL Eppendorf tubes containing 3 μL of 0.5 M EDTA-K2. For termination plasma collection, the mice were euthanized at predetermined time points post the treatment and the blood samples were collected into the 1.5 mL Eppendorf tubes containing 15 μL of 0.5 M EDTA-K2. And then the anticoagulant blood samples were centrifuged at 2,500 g at 4° C. for 15 minutes. The plasma samples were separated into 2 aliquots. The 1st was used for PK analysis, and the 2nd served as backup. The samples were stored at −80° C. before bioanalysis.
The tumor samples were collected at predetermined time points for PK and WB analysis. The tumor was dissected out and split into 3 parts. The 1st part was used for PK analysis, the 2nd part was used for WB analysis and the last one served as backup for study. The samples were transferred into pre-labeled tubes and quickly froze in liquid nitrogen within 2 minutes after dissection. The samples were stored at −80° C. before bioanalysis.
Liver samples were collected at predetermined time points for PK analysis. The left lobe of the liver was dissected out and split into 2 parts. The 1st part was used for PK analysis and the 2nd part served as the backup for the study. The samples were transferred into pre-labeled tubes and quickly froze in liquid nitrogen within 2 minutes after dissection. The samples were stored at −80° C. before bioanalysis.
The harvested plasma and liver samples were processed for pharmacokinetics analysis by LC-MS/MS with a concentration range of 0.200~200 ng/mL for encorafenib in plasma and liver homogenate, and 0.100-100 ng/ml in tumor homogenate, 1.00-1000 ng/mL for Compound 8 in plasma and 0.500~500 ng/ml in tumor and liver homogenate, 50.0~50,000 ng/mL for Compound 26 and Compound 38 in plasma, 5.0~5000 ng/ml in liver and 2.00~2000 ng/ml in tumor homogenate, 1.00-1000 ng/mL for Compound 39 in plasma and 0.500~500 ng/mL in liver and tumor homogenate.

[3] = liver, read-out: Concentration in Liver (mean ± SEM)
[4] = plasma, read-out: Concentration in Plasma (mean ± SEM)
[5] = tumor, read-out: Concentration in Tumor (mean ± SEM)

COC(=O)N[C@@H](C)CNc1nccc(-c2cn(C(C)C)nc2-c2cc(Cl)cc(NS(C)(=O)=O)c2F)n1 [Encorafenib, encorafenib, reference compound]
T/C ([1]; PG-D21): 14.94%
TGI ([1]; PG-D21): 98.67%
Tumor Size on PG-D21 (Mean ± SEM) ([1]; PG-D21): 254 ± 19 mm^3
Tumor Volume (mean ± SEM) ([1]; day 0): 234 ± 6 mm^3
Tumor Volume (mean ± SEM) ([1]; day 3): 329 ± 17 mm^3
Tumor Volume (mean ± SEM) ([1]; day 6): 347 ± 21 mm^3
Tumor Volume (mean ± SEM) ([1]; day 9): 251 ± 20 mm^3
Tumor Volume (mean ± SEM) ([1]; day 13): 194 ± 16 mm^3
Tumor Volume (mean ± SEM) ([1]; day 17): 194 ± 15 mm^3
Tumor Volume (mean ± SEM) ([1]; day 21): 254 ± 19 mm^3
concentration at 6 h [2, 3]: 362 ± 231 ng/g
concentration at 12 h [2, 3]: 16 ± 5.3 ng/g
concentration at 1 h [2, 4]: 5510 ± 1700 ng/mL
concentration at 6 h [2, 4]: 585 ± 446 ng/mL
concentration at 12 h [2, 4]: 11.3 ± 8.5 ng/mL
concentration at 24 h ([2]; plasma, 24 h, read-out: Concentration in Plasma (mean ± SEM)): 0.368 ± 0.082 ng/mL
concentration at 1 h [2, 5]: 1350 ± 391 ng/g
concentration at 6 h [2, 5]: 139 ± 76.2 ng/g
concentration at 12 h [2, 5]: 16.1 ± 10.9 ng/g
